Where a name gives a salt, the structure may show the parent alone.
System: anesthetized dog
Test: Effect on the increase in intravesical pressure induced by carbachol in anesthetized dog
Format: in vivo
Details: for Increase in intravesical pressure: female Beagle dogs under halothane anesthesia, N = 3, P < 0.01 vs Control; for relaxation effect on the smooth muscle in the urinary bladder: conclusion in words from the test results of Test 1
Experimental: Effect on the increase in intravesical pressure induced by carbachol in anesthetized dog
Female Beagle dogs weighing 8.0-15.0 kg were fasted for 24 hours and maintained under halothane anesthesia. A 12F Foley catheter was lubricated with water soluble jelly, inserted into the urethral orifice and advanced approximately 10 cm until the balloon tip was placed well inside the bladder. The balloon was then inflated with 5 ml of room air and catheter slowly withdrawn just part the first resistance that is felt at the bladder neck. Urine was completely drained out through the catheter, and 30 ml of biological saline was infused. The catheter was connected to pressure transducer, and intravesical pressure was continuously recorded. The test compound was injected intravenously at five minutes before the administration of carbachol (1.8 μg/kg).

| Structure (SMILES) | Increase in intravesical pressure (0.032 mg/kg intravenously five minutes before carbachol (1.8 μg/kg), Control 6.8 ± 1.1) | relaxation effect on the smooth muscle in the urinary bladder | Increase in intravesical pressure (0.100 mg/kg intravenously five minutes before carbachol (1.8 μg/kg), Control 6.9 ± 0.7) |
| --- | --- | --- | --- |
| OC[C@H](Cc1ccc(O)cc1)NC[C@H](O)COc1ccccc1 [Test compound (1), (S)-1-Phenoxy-3-[[(S)-1-hydroxy-3-(4-hydroxyphenyl)-2-propyl]amino]-2-propanol] | 2.0 ± 0.3 mmHg | possess a relaxation effect on the smooth muscle in the urinary bladder |  |
| CC(C)(Cc1ccc(Oc2ccc(C(N)=O)cn2)cc1)NC[C@H](O)COc1cccc2[nH]c3ccccc3c12 [Test compound (2), (S)-4-[2-Hydroxy-3-[[2-[4-(5-carbamoyl-2-pyridyloxy)phenyl]-1,1-dimethylethyl]amino]propoxy]-carbazole hydrochloride] |  | possess a relaxation effect on the smooth muscle in the urinary bladder | 4.3 ± 0.3 mmHg |

— patent US20030073846A1, “Aminoalcohol derivatives” (priority 2000, published 2003)
